Assay [1] in a line: Cytotoxicity against human NCI/ADR cells. It is filed as functional, cell-based. As to conditions: NCI/ADR-RES.
In assay [2] the test system is Vero. The assay can be described thus: Cytotoxicity against african green monkey Vero cells. Format: cell-based. As to conditions: Chlorocebus sabaeus.
Assay [3] concerns PANC-1. Description: Cytotoxicity against human PANC1 cells. Format: functional, cell-based.
Assay [4] has as its system P388. Description: Cytotoxicity against mouse P388 cells. It is filed as functional, cell-based.
Assay [5] relates to A549. Description: Cytotoxicity against human A549 cells. It is filed as functional, cell-based.
Assay [6] relates to MCF7. The assay can be described thus: Cytotoxicity against human MCF7 cells. Format: functional, cell-based.

A value given as a limit tells only on which side of the number the result lay.

For orientation: IC50 means the concentration at which inhibition is half-maximal.

Take `C=C/C=C\[C@H](C)[C@H](OC(N)=O)[C@@H](C)[C@H](O)[C@@H](C)CC(=C)[C@H]1[C@H](C)[C@@H](O)[C@@H](C)[C@@H]1/C=C/C[C@@H]1OC(=O)[C@H](C)[C@@H](O)[C@H]1C`: the IC50 in assay [1] was found to be 3.4 µM; in assay [2] it was 0.69 µM; in assay [3], 0.33 µM; in assay [4], 0.19 µM; in assay [5], 0.1 µM; in assay [6] it was 0.13 µM.

`C=C/C=C\[C@H](C)[C@H](OC(N)=O)[C@@H](C)[C@H](O)[C@@H](C)/C=C(\C)[C@H]1[C@H](C)[C@@H](O)[C@@H](C)[C@@H]1/C=C/C[C@@H]1OC(=O)[C@H](C)[C@@H](O)[C@H]1C`: the IC50 is above 5 µM in assay [1]; 21.9 µM in assay [2]; 6.57 µM in assay [3]; 2.13 µM in assay [4]; 6.64 µM in assay [5]; 2.1 µM in assay [6].

As for `C=C/C=C\[C@H](C)[C@H](OC(N)=O)[C@@H](C)[C@H](O)[C@@H](C)C/C(C)=C\[C@H](C)[C@H]1O[C@H](C[C@@H]2OC(=O)[C@H](C)[C@@H](O)[C@H]2C)C=C[C@@H]1C`, the IC50 in assay [1] came to 4.4 µM; in assay [2], 3.65 µM; in assay [3], 3.13 µM; in assay [4], 1 µM; in assay [5], 1.46 µM; in assay [6], 1.8 µM.

As for `C=C/C=C\[C@H](C)[C@H](OC(N)=O)[C@@H](C)[C@H](O)[C@@H](C)C/C(C)=C\[C@H](C)[C@@H](O)[C@@H](C)/C=C\[C@@H](O)C[C@@H]1OC(=O)[C@H](C)[C@@H](O[Si](C)(C)C(C)(C)C)[C@H]1C`, the IC50 in assay [1] came to 2.8 µM; in assay [2], 0.42 µM; in assay [3], 2.65 µM; in assay [4], 0.79 µM; in assay [5] it was 1.99 µM; in assay [6], 0.96 µM.

For `C=C/C=C\[C@H](C)[C@H](OC(N)=O)[C@@H](C)[C@H](O)[C@@H](C)C[C@@](C)(O)[C@H]1[C@H](C)[C@@H](O)[C@@H](C)[C@@H]1/C=C/C[C@@H]1OC(=O)[C@H](C)[C@@H](O)[C@H]1C` (mixture of isomers), the 50% inhibitory concentration (IC50) was above 5 µM in assay [1]; 4.3 µM in assay [2]; 3.03 µM in assay [3]; 2.42 µM in assay [4]; 0.84 µM in assay [5]; 2.36 µM in assay [6].

Consider `C=C/C=C\[C@H](C)[C@H](OC(N)=O)[C@@H](C)[C@H](O)[C@@H](C)C[C@](C)(O)[C@H]1[C@H](C)[C@@H](O)[C@@H](C)[C@@H]1/C=C/C[C@@H]1OC(=O)[C@H](C)[C@@H](O)[C@H]1C` (relative stereo), for which the IC50 in assay [1] is above 5 µM; in assay [2], 16.6 µM; in assay [3], above 5 µM; in assay [4] it was 2.09 µM; in assay [5], 2.64 µM; in assay [6] it was 1.73 µM.

On to `C=C/C=C\[C@H](C)[C@H](OC(N)=O)[C@@H](C)[C@H](O)[C@H](C)C[C@](C)(O)[C@H]1[C@H](C)[C@@H](O)[C@@H](C)[C@@H]1/C=C/C[C@@H]1OC(=O)[C@H](C)[C@@H](O)[C@H]1C` (relative stereo), for which the IC50 in assay [1] was above 5 µM; in assay [2], 11.4 µM; in assay [3] it was above 5 µM; in assay [4], 7.65 µM; in assay [5], above 5 µM; in assay [6], 7.35 µM.

Consider `C=C/C=C\[C@H](C)[C@H](OC(N)=O)[C@@H](C)[C@H](O)[C@@H](C)C/C(C)=C\[C@H](C)[C@@H](O)[C@@H](C)/C=C\[C@@H](O)C[C@@H]1OC(=O)[C@H](C)[C@@H](O)[C@H]1C` [DISERMOLIDE], for which the IC50 in assay [1] stood at 0.017 µM; in assay [2], 30 µM; in assay [3], 0.049 µM; in assay [4], 0.033 µM; in assay [5], 0.015 µM; in assay [6] it was 0.0024 µM.

The values are drawn from ChEMBL document CHEMBL1151194, “Synthetic analogues of the microtubule-stabilizing agent (+)-discodermolide: preparation and biological activity” (J Nat Prod, 2004).
